Results from patent US20180171411A1, “GFRalpha1 AS A BIOMARKER FOR CISPLATIN-INDUCED CHEMORESISTANCE AND METASTASIS” (THE BOARD OF REGENTS OF THE UNIVERSITY OF TEXAS SYSTEM, priority 2015, published 2018).

System: GFRα1-deficient MG-63 and U-2 OS cells
Experiment: WST-1 cell viability of GFRα1-deficient (siRNA) osteosarcoma cells
Format: cell-based, human
Settings: GFRα1 siRNA 48 h, then agent 24 h
Description: FIG. 6. Cell viability of GFRα1-deficient osteosarcoma cells after treatment of chemotherapeutic agents. MG-63 and U-2 OS cells were transfected with either control siRNA or GFRα1 siRNA for 48 h and then treated with different concentrations of doxorubicin, cisplatin, or methotrexate for 24 h. Cell viability was measured using the WST-1 assay. The values are represented as a mean±s.d.m. (n=3). ** denotes P<0.05 by t-test. (a) MG-63 cells. (b) U-2 OS cells.
Small interfering RNA (siRNA)-based Experiments. Human GFRα1 siRNA, Beclin 1 siRNA, HMGB1 siRNA, AMPK siRNA, c-Src siRNA, NFκB p50 siRNA, APE siRNA and Negative (control) siRNA were purchased from Santa Cruz Biotechnology. Cell lines were transiently transfected with siRNA duplexes using Lipofectamine® RNAiMAX (Life Technologies) according to manufacturer's instructions.
Cell viability assays. WST-1 cell viability assay reagent was purchased from Roche. Equal numbers of cells were seeded in triplicate wells in 48-well plates and maintained in growth medium containing 10% FBS). Cells were cultured with PBS, GDNF (50 ng/mL), GDNF (50 ng/ml)+cisplatin (20 μM), or cisplatin (20 μM) in the presence of serum for 24 hr. Cells were also preincubated with inhibitors (3-MA, PP1, Compound C, Baf and CQ) for 1 hr before stimulating with PBS, GDNF, GDNF+cisplatin, or cisplatin. WST-1 reagent was then treated to the cells at the indicated times and incubated for 2 hr at 37° C. Cell viability was determined by measuring the absorbance after adding WST-1. The spectrophotometric absorbance of the samples was measured using an Ultra Multifunctional Microplate Reader (Tecan, Durham, N.C.) at 450 nm. Experiments were done at least in triplicate using separate cultures.

**Q.** With `N.N.[Cl][Pt][Cl]` [cisplatin, Cis-Diamineplatinum(II) dichloride] as the molecule, how does the “cell proliferation of GFRα1-deficient cells compared to control cells” value read?
**A.** The value was “significantly reduced”.
